Experimental data from patent US7763596B2, “Selective glucocorticoid receptor agonists” (The University of Manchester, priority 2000, dated 2010).

Legend:
[1] = target: T1, progesterone receptor (PRB) (Homo sapiens, UniProt P06401); assay: Progestogen activity assay using progesterone receptor transactivation; type: cell-based; settings: 100 nM; for PRB reporter gene activation: AH3-luc reporter, COS7
T1 construct: expressed in transfected cells; host or cells: COS 7
T1 sequence (P06401 1-933): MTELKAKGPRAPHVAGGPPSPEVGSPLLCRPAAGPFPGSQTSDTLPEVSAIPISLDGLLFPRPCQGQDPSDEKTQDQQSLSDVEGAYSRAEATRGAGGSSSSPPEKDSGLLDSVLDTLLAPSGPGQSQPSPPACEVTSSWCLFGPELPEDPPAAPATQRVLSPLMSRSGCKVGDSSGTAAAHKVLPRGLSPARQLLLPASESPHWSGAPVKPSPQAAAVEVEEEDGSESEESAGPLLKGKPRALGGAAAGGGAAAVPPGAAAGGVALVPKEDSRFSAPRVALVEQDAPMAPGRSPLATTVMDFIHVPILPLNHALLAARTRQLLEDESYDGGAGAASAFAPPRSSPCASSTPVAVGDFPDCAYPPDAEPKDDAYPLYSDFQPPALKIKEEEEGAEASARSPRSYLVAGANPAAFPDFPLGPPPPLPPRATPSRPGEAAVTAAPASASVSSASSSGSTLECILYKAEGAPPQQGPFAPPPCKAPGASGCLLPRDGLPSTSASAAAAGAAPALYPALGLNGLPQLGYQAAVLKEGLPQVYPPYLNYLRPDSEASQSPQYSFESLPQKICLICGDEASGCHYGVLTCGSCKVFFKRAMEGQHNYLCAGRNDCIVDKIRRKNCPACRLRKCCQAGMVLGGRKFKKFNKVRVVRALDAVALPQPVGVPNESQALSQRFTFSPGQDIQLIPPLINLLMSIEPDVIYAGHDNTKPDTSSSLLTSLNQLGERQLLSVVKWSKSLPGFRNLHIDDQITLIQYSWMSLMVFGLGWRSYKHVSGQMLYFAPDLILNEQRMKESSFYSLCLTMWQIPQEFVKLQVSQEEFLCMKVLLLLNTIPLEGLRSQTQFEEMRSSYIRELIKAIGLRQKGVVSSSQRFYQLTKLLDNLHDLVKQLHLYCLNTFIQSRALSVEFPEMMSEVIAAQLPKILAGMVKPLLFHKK
Source text: As the GR LBD has strong homology with the PR LBD there is a chance that any of the tested steroids of FIGS. 1 and 2A that activate one of these receptors may also activate the other. The presence of illegitimate progestogen activity associated with the steroids of FIGS. 1 and 2A was examined using a transactivation assay with the PR instead of the GR.
The PR was artificially expressed in a cell line lacking endogenous PR and a GRE “driving” a luciferase reporter gene was used to measure ligand dependent activation.
COS7 cells were transfected with 1 μg pSEO-PRB and 3 μg AH3-Luc per 10 cm tissue culture dish. The cells were plated out in to 24 well plates after transfection and the steroids of FIGS. 1 and 2A were added immediately to generate a final concentration of 100 nM. After 18 hour incubation the cells were lysed and a luciferase assay was performed.

[2] = target: T2, GR ligand binding domain / SRC-1 (Homo sapiens, UniProt P04150); assay: SRC-1 association assay by mammalian two-hybrid analysis; type: cell-based; settings: for SRC-1 recruitment at the highest concentration tested: 100 nM
T2 construct: expressed in transfected cells
T2 sequence (P04150 524-758 limits assumed): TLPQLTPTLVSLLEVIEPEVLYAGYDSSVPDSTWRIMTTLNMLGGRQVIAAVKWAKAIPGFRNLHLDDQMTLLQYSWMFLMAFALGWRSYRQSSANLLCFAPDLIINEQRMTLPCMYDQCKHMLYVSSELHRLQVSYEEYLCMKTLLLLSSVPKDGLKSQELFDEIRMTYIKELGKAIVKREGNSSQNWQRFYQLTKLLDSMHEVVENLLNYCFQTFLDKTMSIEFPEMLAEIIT
Source text: SRC-1 is an important co-activator of GR action that associates with the GR in a ligand dependant manner. The ability of SRC-1 to associate with the GR in this manner can be used as a measure of potency of ligand mediated transactivation. To perform this assay plasmids that generated VP16-GR ligand binding domain (LBD) and GAL4-SRC-1 fusion proteins and a GAL4 binding luciferase reporter gene construct were transfected into in a cell line lacking GR and deficient in endogenous SRC-1. The GAL4-SRC-1 fusion protein could bind to specific sites upstream of the luciferase reporter gene construct. If the SRC-1 fusion protein associated with the ligand bound VP16-GRLBD fusion protein then the VP-16 activation domain augmented the luciferase gene expression.

IL-8 = assay: Repression of endogenous IL-8 in A549s; type: cell-based, human; settings: A549 cells; compound G at 100 nM, p=0.0076
Source text: The A549 cell line (ECACC:86012804) is derived from the human lung epithelial cells from a carcinoma. This cell line contains functional endogenous GR and is stimulated by Tumour Necrosis Factor (TNF) to produce IL-8.
In this assay TNF was used to stimulate NFkB activity in a cell line that expressed endogenous GR. The ability of NFkB to induce IL-8 gene transcription could then be repressed by GR in a ligand dependent manner and, therefore, used to measure transrepression.
COS7 cells were transfected with 3 μg NRE-Luc per 10 cm tissue culture dish. The cells were plated out in to 24 well plates after transfection and left for 18 hours to recover before the steroids of FIGS. 1 and 2A were added. After incubation for 3 hours with the steroids, TNF was added to the samples and after another 15 hours an IL-8 assay (R&D systems) was performed on the cell supernatants according to the manufacturers instructions. Briefly, triplicates of 100 μl of a 1:2 dilution of cell supernatant and 100 μl of a known dilution series of IL-8 were added to the wells of a microtitre plate coated with a monoclonal IL-8 antibody, the samples were incubated with a polyclonal biotinylated IL-8 antibody for 1 hour at room temperature and washed. Streptavidin horse radish peroxidase solution was then added to all wells and incubated for 30 mins before being washed. Tetramethyl benzidine (TMB; a chromagen) was added to all the wells and incubated in the dark for 10 mins, the reaction was stopped by the addition of H2SO4 and the absorbance of each well was read on a spectrophotometer using 450 nm as the primary wavelength. Regression analysis was performed on the standard data and the unknowns were expressed as pg/ml of IL-8 in comparison to the standards.

SRC-1 recruitment at the highest concentration tested [2] | SMILES | PRB reporter gene activation [1] | repression of IL-8 production after TNF activation (IL-8) | other results
significant response | CCCOC(=O)C1(O)C(C)CC2C3CCC4=CC(=O)C=CC4(C)C3(F)C(O)CC21C (stereo not drawn) [R] | slightly increased reporter gene activation compared to that of dexamethasone | – | –
no SRC-1 recruitment | CCCNC(=O)C1(O)C(C)CC2C3CCC4=CC(=O)C=CC4(C)C3(F)C(O)CC21C (stereo not drawn) [Compound G] | – | repressed IL-8 production better than dexamethasone | transactivation as measured by SRC-1 recruitment ([2]; 1 and 10 nmolar): no transactivation as measured by SRC-1 recruitment

The next lines start with the molecule.

SMILES | SRC-1 recruitment at the highest concentration tested [2] | PRB reporter gene activation [1] | repression of IL-8 production after TNF activation (IL-8) | other results
CC1CC2C3CCC4=CC(=O)C=CC4(C)C3(F)C(O)CC2(C)C1(O)C(=O)NCCC(=O)O (stereo not drawn) [Q] | – | slightly increased reporter gene activation compared to that of dexamethasone | – | –
CC1CC2C3CCC4=CC(=O)C=CC4(C)C3(F)C(O)CC2(C)C1(O)C(=O)NCCCO (stereo not drawn) [L] | – | slightly increased reporter gene activation compared to that of dexamethasone | – | PRB activation relative to the activation generated by progesterone [1]: ~40%
CCCCCCNC(=O)OCC(=O)C1(O)C(C)CC2C3CCC4=CC(=O)C=CC4(C)C3(F)C(O)CC21C (stereo not drawn) [Compound T] | significant response | slightly increased reporter gene activation compared to that of dexamethasone | – | –
CC1CC2C3CCC4=CC(=O)C=CC4(C)C3(F)C(O)CC2(C)C12OC(C)(C)OCC2=O (stereo not drawn) [Compound A] | – | – | exhibited transrepression | SRC-1 recruitment, sub-maximal response ([2]; 1, 10 and 100 nM, relative to dexamethasone): ~50%
Cc1ccc(NC(=O)C2(O)C(C)CC3C4CCC5=CC(=O)C=CC5(C)C4(F)C(O)CC32C)cc1 (stereo not drawn) [Compound O] | – | slightly increased reporter gene activation compared to that of dexamethasone | – | –
CC1CC2C3CCC4=CC(=O)C=CC4(C)C3(F)C(O)CC2(C)C1(O)C(=O)COC(=O)c1ccc(F)cc1 (stereo not drawn) [Compound D] | – | – | exhibited transrepression | SRC-1 recruitment compared with dexamethasone ([2]; 1, 10 and 100 nM): recruited SRC-1 to the same extent as dexamethasone
